Measured values reported in patent publication US9988400B2 (Genentech, Inc., priority 2013, dated 2018).

Molecular target: T1, HEK cells stably transfected with tetracycline inducible hNR1 and hNR2A (Homo sapiens, UniProt Q05586+Q12879)
T1 construct: expressed in transfected cells; host or cells: HEK cells, stably transfected, tetracycline/doxycycline inducible
Assay: Assay 1: Cell-Based Assay, cytosolic calcium response to positive allosteric modulators (with 30 μM glycine and 300 nM L-glutamate, EC30)
Conditions: for EC50: cytosolic calcium response, with 30 μM glycine and 300 nM L-glutamate (EC30), — = no plateau was reached; for Max %: responses scaled relative to 100 μM L-glutamate maximal response (100%) and 0 μM L-glutamate (0%)
Outline: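 Cells induced 24 h with 7.5 μg mL^−1 doxycycline plus 500 μM (+)-ketamine, loaded 60 min at 37 °C with calcium dye in Mg-free HBSS (1.8 mM Ca, probenecid, 10 μM (+)-ketamine, pH 7.15). Peak RFU over 5 min after compound addition, scaled to 100 μM L-glutamate (100%) and 0 μM (0%); four-parameter Hill fit for EC50, max % if no plateau.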

T1 sequence (Q12879 23-1464, other chains not shown): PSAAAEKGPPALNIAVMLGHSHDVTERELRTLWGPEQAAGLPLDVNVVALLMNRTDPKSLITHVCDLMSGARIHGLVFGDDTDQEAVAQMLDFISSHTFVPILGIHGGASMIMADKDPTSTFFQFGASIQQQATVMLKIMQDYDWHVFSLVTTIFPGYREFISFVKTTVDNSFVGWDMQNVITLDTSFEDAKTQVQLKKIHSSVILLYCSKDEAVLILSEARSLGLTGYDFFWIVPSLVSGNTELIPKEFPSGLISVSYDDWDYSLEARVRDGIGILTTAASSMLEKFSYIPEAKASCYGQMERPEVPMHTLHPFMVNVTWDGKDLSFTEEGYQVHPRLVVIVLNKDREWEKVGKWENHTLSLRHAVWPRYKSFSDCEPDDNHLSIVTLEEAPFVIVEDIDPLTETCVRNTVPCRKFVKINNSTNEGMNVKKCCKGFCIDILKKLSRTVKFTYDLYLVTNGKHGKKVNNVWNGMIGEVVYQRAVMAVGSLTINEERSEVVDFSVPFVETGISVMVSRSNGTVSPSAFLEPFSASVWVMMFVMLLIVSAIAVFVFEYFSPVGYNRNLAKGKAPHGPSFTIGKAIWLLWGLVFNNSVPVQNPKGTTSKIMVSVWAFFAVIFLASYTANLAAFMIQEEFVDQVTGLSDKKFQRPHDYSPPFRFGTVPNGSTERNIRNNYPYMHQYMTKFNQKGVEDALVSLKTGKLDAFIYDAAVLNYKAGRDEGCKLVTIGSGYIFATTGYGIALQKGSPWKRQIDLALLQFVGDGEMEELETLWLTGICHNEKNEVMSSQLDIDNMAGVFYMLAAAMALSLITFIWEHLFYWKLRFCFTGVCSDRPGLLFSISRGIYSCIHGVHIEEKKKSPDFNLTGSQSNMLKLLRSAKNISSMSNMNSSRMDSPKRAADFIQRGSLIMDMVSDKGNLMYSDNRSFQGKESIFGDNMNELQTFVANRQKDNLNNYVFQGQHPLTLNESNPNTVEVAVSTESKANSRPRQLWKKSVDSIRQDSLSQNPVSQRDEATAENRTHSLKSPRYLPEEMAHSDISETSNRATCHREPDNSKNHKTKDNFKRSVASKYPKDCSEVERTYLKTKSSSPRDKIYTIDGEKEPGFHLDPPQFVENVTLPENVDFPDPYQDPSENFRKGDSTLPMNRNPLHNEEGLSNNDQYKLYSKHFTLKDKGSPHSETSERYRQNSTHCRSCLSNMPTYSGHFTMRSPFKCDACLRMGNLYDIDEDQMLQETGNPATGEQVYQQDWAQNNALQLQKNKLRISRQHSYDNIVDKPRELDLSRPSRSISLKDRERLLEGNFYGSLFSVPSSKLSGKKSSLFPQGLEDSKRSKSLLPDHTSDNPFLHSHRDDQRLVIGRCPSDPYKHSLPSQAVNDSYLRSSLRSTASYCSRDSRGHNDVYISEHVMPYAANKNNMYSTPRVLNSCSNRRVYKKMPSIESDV

CCNC(=O)c1c(C)sc2nc(Cn3nc(C4CC4)cc3C(F)(F)F)cc(=O)n12 [compound 123, 7-[[3-cyclopropyl-5-(trifluoromethyl)pyrazol-1-yl]methyl]-N-ethyl-2-methyl-5-oxo-thiazolo[3,2-a]pyrimidine-3-carboxamide]
EC50 (Table 3): 2.59 µM

CCNC(=O)c1c(C(F)(F)F)sc2nc(CN(CC)c3ccc(F)cc3)cc(=O)n12 [compound 83, N-ethyl-7-[(N-ethyl-4-fluoro-anilino)methyl]-5-oxo-2-(trifluoromethyl)thiazolo[3,2-a]pyrimidine-3-carboxamide]
EC50 (Table 3): 0.154 µM

Cc1sc2nc(Cn3nc(C4CC4)cc3C(F)(F)F)cc(=O)n2c1-c1cncnc1 [Example 15.28, 7-((3-cyclopropyl-5-(trifluoromethyl)-1H-pyrazol-1-yl)methyl)-2-methyl-3-(pyrimidin-5-yl)-5H-thiazolo[3,2-a]pyrimidin-5-one]
Max % (Table 2): 80.8%

CNC(=O)c1c(C(F)(F)F)sc2nc(Cn3nc(C(F)(F)F)cc3C3CC3)cc(=O)n12 [compound 53, 7-[[5-cyclopropyl-3-(trifluoromethyl)pyrazol-1-yl]methyl]-N-methyl-5-oxo-2-(trifluoromethyl)thiazolo[3,2-a]pyrimidine-3-carboxamide]
EC50 (Table 3): 0.635 µM

CCN(Cc1cc(=O)n2c3c(sc2n1)CCC3(C)C)c1ccc(F)cc1 [Example 8.8, 6-[(N-ethyl-4-fluoro-anilino)methyl]-1,1-dimethyl-2,3-dihydrocyclopenta[3,4]thiazolo[1,4-a]pyrimidin-8-one]
EC50 (Table 2): 8.7 µM | Max % (Table 2): 108%

O=c1cc(Cn2nc(C(F)(F)F)cc2C2CC2)nc2sc3c(n12)C(CO)CC3 (centres unmarked) [compound 95]
EC50 (Table 3): 9.2 µM

CCN(Cc1cc(=O)n2c(Cl)c(C)sc2n1)c1ccc(F)cc1 [Example 11.1, 3-chloro-7-[[ethyl(4-fluorophenyl)amino]methyl]-2-methyl-5H-[1,3]thiazolo[3,2-a]pyrimidin-5-one]
EC50 (Table 2): 2 µM | Max % (Table 2): 159%

CCNC(=O)c1c(C)sc2nc(Cc3cccc(C(F)F)c3F)c(F)c(=O)n12 [compound 31, 7-[[3-(difluoromethyl)-2-fluoro-phenyl]methyl]-N-ethyl-6-fluoro-2-methyl-5-oxo-thiazolo[3,2-a]pyrimidine-3-carboxamide]
EC50 (Table 3): 4.17 µM

CCNC(=O)c1c(C)sc2nc(Cn3nc(Cl)cc3C)cc(=O)n12 [compound 21, 7-[(3-chloro-5-methyl-pyrazol-1-yl)methyl]-N-ethyl-2-methyl-5-oxo-thiazolo[3,2-a]pyrimidine-3-carboxamide]
EC50 (Table 3): 7.88 µM

CCN(Cc1cc(=O)n2c(C3CC3CO)c(C)sc2n1)c1ccc(F)cc1 (single isomer, unassigned) [Example 5.19, 7-((ethyl(4-fluorophenyl)amino)methyl)-3-(trans-2-(hydroxymethyl)cyclopropyl)-2-methyl-5H-thiazolo[3,2-a] pyrimidin-5-one]
EC50 (Table 2): 1.7 µM | Max % (Table 2): 141%

CCNC(=O)c1c(C)sc2nc(Cn3nc(Cl)cc3C(F)(F)F)cc(=O)n12 [compound 29, 7-[[3-chloro-5-(trifluoromethyl)pyrazol-1-yl]methyl]-N-ethyl-2-methyl-5-oxo-thiazolo[3,2-a]pyrimidine-3-carboxamide]
EC50 (Table 3): 1.76 µM

CCN(Cc1cc(=O)n2c(-c3ccc(N)nc3)c(C)sc2n1)c1ccc(F)cc1 [Example 5.51, 3-(6-aminopyridin-3-yl)-7-((ethyl(4-fluorophenyl)amino)methyl)-2-methyl-5H-thiazolo[3,2-a]pyrimidin-3-one]
EC50 (Table 2): 40.7 µM | Max % (Table 2): 80.3%

CCNC(=O)c1c(C)sc2nc(Cc3cc(F)ccc3C)cc(=O)n12 [Example 21.36, N-ethyl-7-(5-fluoro-2-methylbenzyl)-2-methyl-5-oxo-5H-thiazolo[3,2-a]pyrimidine-3-carboxamide]
Max % (Table 2): 71.8%

CCNC(=O)c1c(C)sc2nc(Cc3cccc(C#N)n3)cc(=O)n12 [Example 21.22, 7-((6-cyanopyridin-2-yl)methyl)-N-ethyl-2-methyl-5-oxo-5H-thiazolo[3,2-a]pyrimidine-3-carboxamide]
Max % (Table 2): 60.1%

Cc1sc2nc(Cn3nc(C(F)(F)F)cc3Cl)cc(=O)n2c1C1CC1C#N (centres unmarked) [compound 104, 2-[7-[[5-chloro-3-(trifluoromethyl)pyrazol-1-yl]methyl]-2-methyl-5-oxo-thiazolo[3,2-a]pyrimidin-3-yl]cyclopropanecarbonitrile]
EC50 (Table 3): 0.0341 µM

CCNC(=O)c1c(C)sc2nc(Cc3cc(C#N)ccc3Cl)cc(=O)n12 [Example 21.6, 7-(2-chloro-5-cyanobenzyl)-N-ethyl-2-methyl-5-oxo-5H-thiazolo[3,2-a]pyrimidine-3-carboxamide]
EC50 (Table 2): 45.3 µM | Max % (Table 2): 114%

Cc1sc2nc(COc3ccc(F)cc3)cc(=O)n2c1C(C)CCO (centres unmarked) [Example 4.33, 7-(4-Fluorophenoxymethyl)-3-(4-hydroxybutan-2-yl)-2-methyl-5H-[1,3]thiazolo[3,2-a]pyrimidin-5-one]
EC50 (Table 2): 13.8 µM | Max % (Table 2): 121%

Cc1sc2nc(Cn3nc(Cl)cc3C(F)(F)F)cc(=O)n2c1C(C)CO (centres unmarked) [compound 223, 7-[[3-chloro-5-(trifluoromethyl)pyrazol-1-yl]methyl]-3-(2-hydroxy-1-methyl-ethyl)-2-methyl-thiazolo[3,2-a]pyrimidin-5-one]
EC50 (Table 3): 10.9 µM

CCN(Cc1cc(=O)n2c(C(C)(C)C)csc2n1)c1ccc(F)cc1 [Example 10.18, 3-tert-butyl-7-[(N-ethyl-4-fluoro-anilino)methyl]thiazolo[3,2-a]pyrimidin-5-one]
EC50 (Table 2): 16.9 µM | Max % (Table 2): 88.2%

CCNC(=O)c1c(C(C)=O)sc2nc(Cn3nc(Cl)cc3C(F)(F)F)cc(=O)n12 [compound 238, 2-acetyl-7-[[3-chloro-5-(trifluoromethyl)pyrazol-1-yl]methyl]-N-ethyl-5-oxo-thiazolo[3,2-a]pyrimidine-3-carboxamide]
EC50 (Table 3): 2.32 µM

CCN(Cc1cc(=O)n2c(CN(C)C)c(C)sc2n1)c1ccc(F)cc1 [Example 10.7, 3-[(dimethylamino)methyl]-7-[[ethyl(4-fluorophenyl)amino]methyl]-2-methyl-5H-[1,3]thiazolo[3,2-a]pyrimidin-5-one]
EC50 (Table 2): 23.4 µM | Max % (Table 2): 127%

CCN(Cc1cc(=O)n2c3c(sc2n1)CCC3CC(N)=O)c1ccc(F)cc1 (centres unmarked) [Example 8.16, 2-[6-[(N-ethyl-4-fluoro-anilino)methyl]-8-oxo-2,3-dihydro-1H-cyclopenta[3,4]thiazolo[1,4-a]pyrimidin-1-yl]acetamide]
EC50 (Table 2): 13 µM | Max % (Table 2): 137%

CNC(=O)c1c(C)sc2nc(Cc3cccc(C#N)c3F)cc(=O)n12 [Example 21.2, 7-(3-cyano-2-fluorobenzyl)-N,2-dimethyl-5-oxo-5H-thiazolo[3,2-a]pyrimidine-3-carboxamide]
EC50 (Table 2): 21.6 µM | Max % (Table 2): 133%

CCN(Cc1cc(=O)n2c(C3CCCCC3)c(C)sc2n1)c1ccc(F)cc1 [Example 9.1, 3-cyclohexyl-7-[[ethyl(4-fluorophenyl)amino]methyl]-2-methyl-5H-[1,3]thiazolo[3,2-a]pyrimidin-5-one]
Max % (Table 2): 48.1%

CC1CC1c1c(C(F)(F)F)sc2nc(Cn3nc(Cl)cc3C(F)(F)F)cc(=O)n12 (centres unmarked) [compound 200, 7-[[3-chloro-5-(trifluoromethyl)pyrazol-1-yl]methyl]-3-(2-methylcyclopropyl)-2-(trifluoromethyl)thiazolo[3,2-a]pyrimidin-5-one]
EC50 (Table 3): 3.13 µM

Cc1sc2nc(COc3ccc(F)cc3)cc(=O)n2c1C1CC1C(C)(C)O (centres unmarked) [Example 4.34, 7-(4-Fluorophenoxymethyl)-3-[2-(2-hydroxypropan-2-yl)cyclopropyl]-2-methyl-5H-[1.3]thiazolo[3,2-a]pyrimidin-5-one]
Max % (Table 2): 49.2%

COc1ccc(C#N)cc1Cc1cc(=O)n2c([C@@H]3C[C@H]3CO)c(C)sc2n1 (relative stereo) [Example 20.10, 3-[[3-[trans-2-(hydroxymethyl)cyclopropyl]-2-methyl-5-oxo-thiazolo[3,2-a]pyrimidin-7-yl]methyl]-4-methoxy-benzonitrile]
EC50 (Table 2): 9.1 µM | Max % (Table 2): 127%

Cc1sc2nc(CN3c4ccc(F)cc4CC3C)cc(=O)n2c1-c1ccco1 (centres unmarked) [Example 5.46, 7-((5-fluoro-2-methylindolin-1-yl)methyl)-3-(furan-2-yl)-2-methyl-5H-thiazolo[3,2-a]pyrimidin-5-one]
EC50 (Table 2): 3.8 µM | Max % (Table 2): 155%

Cc1sc2nc(Cn3nc(C(F)(F)F)cc3Cl)cc(=O)n2c1C1CC1CO (single isomer, unassigned) [compound 137]
EC50 (Table 3): 0.42 µM

Cc1sc2nc(Cn3nc(Cl)cc3C(F)(F)F)cc(=O)n2c1C(C)C#N (centres unmarked) [compound 252, 2-[7-[[3-chloro-5-(trifluoromethyl)pyrazol-1-yl]methyl]-2-methyl-5-oxo-thiazolo[3,2-a]pyrimidin-3-yl]propanenitrile]
EC50 (Table 3): 5.76 µM

CCNC(=O)c1c(C(F)(F)F)sc2nc(Cn3nc(Cl)cc3Cl)cc(=O)n12 [compound 256, 7-[(3,5-dichloropyrazol-1-yl)methyl]-N-ethyl-5-oxo-2-(trifluoromethyl)thiazolo[3,2-a]pyrimidine-3-carboxamide]
EC50 (Table 3): 0.611 µM

CCN(Cc1cc(=O)n2c(-c3cccnc3)c(C)sc2n1)c1ccc(F)cc1 [Example 5.21, 7-[(N-ethyl-4-fluoro-anilino)methyl]-2-methyl-3-(3-pyridyl)thiazolo[3,2-a]pyrimidin-5-one]
EC50 (Table 2): 0.584 µM | Max % (Table 2): 141%

CCN(Cc1cc(=O)n2c3c(sc2n1)CCC3COC)c1ccc(F)cc1 (centres unmarked) [Example 8.15, 2-((ethyl(4-fluorophenyl)amino)methyl)-6-(methoxymethyl)-7,8-dihydrocyclopenta[4,5]thiazolo[3,2-a]pyrimidin-4(6H)-one]
EC50 (Table 2): 2.3 µM | Max % (Table 2): 138%
